Measurements: patent publication US6509002B1, “Diagnostic agent for diabetes” (priority 1997, dated 2003)
One block for each molecule: values may come before it.

Experiment: ^13C breath test, intravenous administration (femoral vein), diabetic vs normal rats
Type: in vivo, rat
Description: As test animals, male Sprague-Dawley strain (SD) neonatal rats were purchased from Nippon Charles River K. K. together with their lactating rats. […] Insulin secretion-deficient type diabetes was generated by administering streptozotocin (STZ) to neonatal rats (“Saibokogaku (Cell Engineering)”, Extra Issue, medical Experiment Manual Series, Strategy for Study of Diabetes, edited by Susumu Seino and Yoshikazu Oka, published by Shujunsha Co., Japan). STZ was subcutaneously administered to 2-day-old rats at a dose of 90 mg/kg. […] Two days after the administration, blood was collected by cardiac puncture, and the casual blood sugar level of each rat was measured with Terumo […] (blood sugar measurement set). […] Breath tests were carried out according to the method as described in (2)-1 or (2)-2 below on diabetic rats prepared in (1) above (8-10-week-old) and normal rats (8-10-week-old). […] A blood sample was collected from the tail vein, and its sugar level was determined using Terumo […] (blood sugar measurement set). […] Fine Science Tools Inc.).

[1] = diabetic rats, 10 mg/kg from the femoral vein, Example 34
[2] = normal rats, 10 mg/kg from the femoral vein, Example 34
[3] = diabetic rats, 20 mg/kg from the femoral vein, Example 12
[4] = normal rats, 20 mg/kg from the femoral vein, Example 12
[5] = diabetic rats, 5 mg/kg from the femoral vein, Example 28
[6] = normal rats, 5 mg/kg from the femoral vein, Example 28
[7] = diabetic rats, 10 mg/kg from the femoral vein, Example 9
[8] = normal rats, 10 mg/kg from the femoral vein, Example 9
[9] = diabetic rats, 50 mg/kg from the femoral vein, Example 14
[10] = normal rats, 50 mg/kg from the femoral vein, Example 14
[11] = diabetic rats, 10 mg/kg from the femoral vein, Example 25
[12] = normal rats, 10 mg/kg from the femoral vein, Example 25
[13] = diabetic rats, 20 mg/kg from the femoral vein, Example 23
[14] = normal rats, 20 mg/kg from the femoral vein, Example 23
[15] = diabetic rats (n=2), 20 mg/kg from the femoral vein, Example 18
[16] = normal rats, 20 mg/kg from the femoral vein, Example 18
[17] = diabetic rats, 20 mg/kg from the femoral vein, Example 22
[18] = normal rats, 20 mg/kg from the femoral vein, Example 22
[19] = diabetic rats, 20 mg/kg from the femoral vein, Example 8
[20] = normal rats, 20 mg/kg from the femoral vein, Example 8
[21] = diabetic rats, 50 mg/kg, printed as administered orally from the femoral vein, Example 19
[22] = normal rats, 50 mg/kg, printed as administered orally from the femoral vein, Example 19
[23] = diabetic rats, 30 mg/kg from the femoral vein, Example 32
[24] = normal rats, 30 mg/kg from the femoral vein, Example 32
[25] = diabetic rats, 70 mg/kg from the femoral vein, Example 30
[26] = normal rats, 70 mg/kg from the femoral vein, Example 30
[27] = diabetic rats, 50 mg/kg from the femoral vein, Example 31
[28] = normal rats, 50 mg/kg from the femoral vein, Example 31
[29] = diabetic rats, 20 mg/kg from the femoral vein, Example 21
[30] = normal rats, 20 mg/kg from the femoral vein, Example 21

SMILES: O=C(O)CC(O)(C[13C](=O)O)[13C](=O)O (centres unmarked) [1,6-^13C-citric acid]
slope from 10 to 14 min after the administration [5]: −10.45±1.30 ‰/4 min
Δ^13C value (‰) at 20 min after the administration [5]: 54.38±3.34 ‰
slope from 10 to 14 min after the administration [6]: −5.81±0.92 ‰/4 min
Δ^13C value (‰) at 20 min after the administration [6]: 67.49±1.82 ‰

SMILES: N=C(N)NCCC[C@H](N)[13C](=O)O [1-^13C-arginine]
slope from 2 to 7 min after the administration [9]: 146.90±18.97 ‰/5 min
time course of Δ^13C values (‰) [9]: increased up to about 12 min after the administration, but thereafter decreased gradually up to 20 min
Δ^13C value (‰) at 10 min after the administration [9]: 192.40±30.23 ‰
slope from 2 to 7 min after the administration [10]: 75.02±10.01 ‰/5 min
time course of Δ^13C values (‰) [10]: continued increasing up to 20 min
Δ^13C value (‰) at 10 min after the administration [10]: 111.68±14.15 ‰

SMILES: O=[13CH][C@H](O)[C@@H](O)[C@@H](O)[C@H](O)CO [1-^13C-galactose]
time course of Δ^13C values (‰) (rat, in vivo, 100 mg/kg): continued increasing up to 30 min

SMILES: N[C@@H](CCC(=O)O)[13C](=O)O [1-^13C-glutamic acid]
time course of Δ^13C values (‰) (rat, in vivo, 10 mg/kg): increased sharply up to about 4 min after the administration of 1-^13C-glutamic acid, but thereafter decreased gradually up to 20 min

SMILES: Cl.NCCCC[C@H](N)[13C](=O)O [1-^13C-lysine hydrochloride]
slope from 15 to 20 min after the administration [21]: −26.64±5.36 ‰/5 min
time course of Δ^13C values (‰) [21]: increased up to about 10 min after the administration, but thereafter decreased gradually up to 20 min
Δ^13C value (‰) at 8 min after the administration [21]: 181.53±23.82 ‰
slope from 15 to 20 min after the administration [22]: −4.58±6.91 ‰/5 min
time course of Δ^13C values (‰) [22]: increased up to about 11 min after the administration of 1-^13C-lysine hydrochloride, and thereafter remained at an almost constant level up to 20 min
Δ^13C value (‰) at 8 min after the administration [22]: 96.95±27.48 ‰

SMILES: CCCCCCCC/C=C\CCCCCCC[13C](=O)O [1-^13C-oleic acid]
slope from 10 to 20 min after the administration [25]: −12.79±3.72 ‰/10 min
time course of Δ^13C values (‰) [25]: increased sharply up to about 8 min after the administration, but thereafter decreased gradually up to 20 min
Δ^13C value (‰) at 8 min after the administration [25]: 132.93±7.09 ‰
slope from 10 to 20 min after the administration [26]: 13.61±4.58 ‰/10 min
time course of Δ^13C values (‰) [26]: continued increasing up to 20 min
Δ^13C value (‰) at 8 min after the administration [26]: 86.51±14.72 ‰

SMILES: CCCCCCCCCCCCCCC[13C](=O)O [1-^13C-palmitic acid]
slope from 10 to 20 min after the administration [27]: −4.40±2.21 ‰/10 min
time course of Δ^13C values (‰) [27]: increased sharply up to about 5 min after the administration, but thereafter decreased gradually up to 20 min
slope from 10 to 20 min after the administration [28]: 1.43±1.33 ‰/10 min
time course of Δ^13C values (‰) [28]: continued increasing up to 20 min

SMILES: O=[13C](O)C1CCCN1 (centres unmarked) [1-^13C-proline]
time course of Δ^13C values (‰) [29]: increased up to about 9 min after the administration of 1-^13C-proline, but thereafter decreased gradually up to 20 min
Δ^13C value (‰) at 20 min after the administration [29]: 115.77±6.61 ‰
time course of Δ^13C values (‰) [30]: increased up to about 9 min after the administration of 1-^13C-proline, but thereafter decreased gradually up to 20 min
Δ^13C value (‰) at 20 min after the administration [30]: 92.27±11.10 ‰

Now from value to molecule, other results behind:

slope from 6 to 10 min after the administration [1]: −6.26±1.50 ‰/4 min
Δ^13C value (‰) at 4 min after the administration [1]: 41.97±2.79 ‰
slope from 6 to 10 min after the administration [2]: −0.83±0.90 ‰/4 min
time course of Δ^13C values (‰) [2]: continued increasing up to 20 min
Δ^13C value (‰) at 4 min after the administration [2]: 27.29±2.31 ‰
SMILES: C[13C](=O)OCC(CO[13C](C)=O)O[13C](C)=O [1,1,1-^13C-triacetin]
time course of Δ^13C values (‰) [1]: increased sharply up to about 8 min after the administration, but thereafter decreased gradually up to 20 min

slope from 2 to 7 min after the administration [3]: 87.79±12.93 ‰/5 min
Δ^13C value (‰) at 10 min after the administration [3]: 155.70±17.99 ‰
slope from 2 to 7 min after the administration [4]: 53.56±4.72 ‰/5 min
time course of Δ^13C values (‰) [4]: continued increasing up to 20 min
Δ^13C value (‰) at 10 min after the administration [4]: 100.71±5.97 ‰
SMILES: Cl.NCCC[13C@H](N)[13C](=O)O [1,2-^13C-ornithine hydrochloride]
time course of Δ^13C values (‰) [3]: increased up to about 14 min after the administration, and thereafter remained at an almost constant level up to 20 min

slope from 5 to 15 min after the administration [7]: −52.09±19.38 ‰/10 min
Δ^13C value (‰) at 10 min after the administration [7]: 161.35±6.670 ‰
slope from 5 to 15 min after the administration [8]: −18.12±7.28 ‰/10 min
Δ^13C value (‰) at 10 min after the administration [8]: 132.16±3.53 ‰
SMILES: C[C@H](N)[13C](=O)O [1-^13C-alanine]
time course of Δ^13C values (‰) [7]: sharply increased up to 4 min after the administration of 1-^13C-alanine, but thereafter decreased gradually up to 20 min
time course of Δ^13C values (‰) [8]: sharply increased up to 4 min after the administration of 1-^13C-alanine, but thereafter decreased gradually up to 20 min

slope from 3 to 8 min after the administration [11]: −53.79±11.42 ‰/5 min
Δ^13C value (‰) at 3 min after the administration [11]: 172.66±8.65 ‰
slope from 3 to 8 min after the administration [12]: −8.13±10.84 ‰/5 min
Δ^13C value (‰) at 3 min after the administration [12]: 126.56±13.45 ‰
SMILES: N[C@@H](CC(=O)O)[13C](=O)O [1-^13C-aspartic acid]
time course of Δ^13C values (‰) [11]: increased sharply up to about 2 min after the administration of 1-^13C-aspartic acid, but thereafter decreased gradually up to 20 min
time course of Δ^13C values (‰) [12]: increased sharply up to about 2 min after the administration of 1-^13C-aspartic acid, but thereafter decreased gradually up to 20 min

slope from 1 to 2 min after the administration [13]: 38.50±2.33 ‰/min
Δ^13C value (‰) at 2 min after the administration [13]: 42.87±2.09 ‰
slope from 1 to 2 min after the administration [14]: 65.72±10.66 ‰/min
Δ^13C value (‰) at 2 min after the administration [14]: 78.97±13.98 ‰
SMILES: N[C@@H](CS)[13C](=O)O [1-^13C-cysteine]

time course of Δ^13C values (‰) (rat, in vivo, 100 mg/kg): continued increasing up to 20 min
SMILES: O=C([13CH2]O)[C@@H](O)[C@H](O)[C@H](O)CO [1-^13C-fructose]

slope from 1 to 2 min after the administration [15]: 105.59 ‰/min
Δ^13C value (‰) at 5 min after the administration [15]: 168.18 ‰
slope from 1 to 2 min after the administration [16]: 69.88±11.51 ‰/min
Δ^13C value (‰) at 5 min after the administration [16]: 107.17±15.42 ‰
SMILES: NC(=O)CC[C@H](N)[13C](=O)O [1-^13C-glutamine]
time course of Δ^13C values (‰) (diabetic rats, 20 mg/kg from the femoral vein, Example 18): increased sharply up to about 3 min after the administration, but thereafter decreased gradually up to 20 min
time course of Δ^13C values (‰) [16]: increased sharply up to about 3 min after the administration of 1-^13C-glutamine, and thereafter increased gradually up to 20 min

Δ^13C value (‰) at 7 min after the administration [17]: 156.62±10.83 ‰
Δ^13C value (‰) at 7 min after the administration [18]: 119.06±12.19 ‰
SMILES: NC[13C](=O)O [1-^13C-glycine]
time course of Δ^13C values (‰) [17]: increased sharply up to about 5 min after the administration, but thereafter decreased gradually up to 20 min
time course of Δ^13C values (‰) [18]: increased sharply up to about 5 min after the administration of 1-^13C-glycine, remained at an almost constant level up to about 12 min, but thereafter decreased gradually up to 20 min

slope from 2 to 5 min after the administration [19]: 56.21±2.09 ‰/3 min
Δ^13C value (‰) at 5 min after the administration [19]: 83.92±5.53 ‰
slope from 2 to 5 min after the administration [20]: 33.21±2.44 ‰/3 min
time course of Δ^13C values (‰) [20]: continued increasing up to 20 min
Δ^13C value (‰) at 5 min after the administration [20]: 46.98±3.24 ‰
SMILES: CC[C@H](C)[C@H](N)[13C](=O)O [1-^13C-isoleucine]
time course of Δ^13C values (‰) [19]: increased sharply up to about 9 min after the administration, but thereafter remained at an almost constant level up to 20 min

Δ^13C value (‰) at 5 min after the administration (diabetic rats (n=2), 10 mg/kg from the femoral vein, Example 24): 52.89±10.83 ‰
Δ^13C value (‰) at 5 min after the administration (normal rats, 10 mg/kg from the femoral vein, Example 24): 42.56±2.43 ‰
SMILES: CC(C)C[C@H](N)[13C](=O)O [1-^13C-leucine]

slope from 10 to 20 min after the administration [23]: −20.55±7.75 ‰/10 min
slope from 10 to 20 min after the administration [24]: −4.76±4.41 ‰/10 min
SMILES: CCCCCCC[13C](=O)O [1-^13C-octanoic acid]
time course of Δ^13C values (‰) [23]: increased sharply up to about 5 min after the administration, but thereafter decreased gradually up to 20 min
time course of Δ^13C values (‰) [24]: increased sharply up to about 5 min after the administration of 1-^13C-octanoic acid, and thereafter remained at an almost constant level up to 20 min
